Measured values published in ChEMBL document CHEMBL5647694, “Novel orally bioavailable EZH1/2 dual inhibitors with greater antitumor efficacy than an EZH2 selective inhibitor” (Cancer Sci, 2017).

Assays:
[1] = Cmax in Crl:CD Sprague-Dawley rat at 100 mg/kg, po by LC/MS/MS analysis; assay type: ADME, organism-based; settings: in vivo
[2] = Toxicity in Crl:CD Sprague-Dawley rat assessed as inorganic phosphorus level in blood at 100 mg/kg, po administered daily for 14 days (reference value: 6.02+/-0.628 mg/dL); assay type: organism-based; settings: in vivo, 336 h, time 14 day
[3] = Toxicity in Crl:CD Sprague-Dawley rat assessed as […] dehydrogenase level in blood at 100 mg/kg, po administered daily for 14 days (reference value: 103 +/-16.1 U/L); assay type: organism-based; settings: in vivo, 336 h, time 14 day
[4] = Toxicity in Crl:CD Sprague-Dawley rat assessed as total cholesterol level in blood at 100 mg/kg, po administered daily for 14 days (reference value: 63.5 +/-[…]); assay type: organism-based; settings: in vivo, 336 h, time 14 day
[5] = Toxicity in Crl:CD Sprague-Dawley rat assessed as sodium level in blood at 100 mg/kg, po administered daily for 14 days (reference value: 141+/-0.82 mEq/L); assay type: organism-based; settings: in vivo, 336 h, time 14 day
[6] = Toxicity in Crl:CD Sprague-Dawley rat assessed as atrophy of spleen at 100 mg/kg, po administered daily for 14 days by hematoxylin and eosin staining based analysis; assay type: organism-based; settings: in vivo, 336 h, time 14 day
[7] = Toxicity in Crl:CD Sprague-Dawley rat assessed as decrease in body weight at 100 mg/kg, po administered daily for 14 days; assay type: organism-based; settings: in vivo, 336 h, time 14 day
[8] = molecular target: Histone-lysine N-methyltransferase, H3 lysine-36 specific (Homo sapiens, UniProt Q96L73); test: Inhibition of human NSD1 using Nucleosomes and [3H]SAM as substrate incubated for 30 mins to 1 hr by HotSpot kinase assay
[9] = molecular target: CDK7/Cyclin H/MNAT1 (Homo sapiens) (UniProt P51946+P50613+P51948); test: Inhibition of N-terminal GST-tagged full length human CDK7 (1 to 346 residues)/human CyclinH (1 to 323 residues)/human MAT1 (1 to 309 residues) expressed in baculovirus-infected Sf21 cells using CTD3 peptide as substrate at 1 uM in presence of ATP by Mobility shift assay
[10] = Antitumor activity against human OV7 cells assessed as cell growth inhibition treated for 10 to 15 days; assay type: functional; settings: time 10-15 day
Kasumi 1 = test: Antitumor activity against human Kasumi 1 cells assessed as cell growth inhibition treated for 10 to 15 days; assay type: functional; settings: time 10-15 day
CA46 = test: Antitumor activity against human CA46 cells assessed as cell growth inhibition treated for 10 to 15 days; assay type: functional; settings: time 10-15 day
EB2 = test: Antitumor activity against human EB2 cells assessed as cell growth inhibition treated for 10 to 15 days; assay type: functional; settings: time 10-15 day
UACC-812 = test: Antitumor activity against human UACC-812 cells assessed as cell growth inhibition treated for 10 to 15 days; assay type: functional; settings: time 10-15 day
LS-513 = test: Antitumor activity against human LS-513 cells assessed as cell growth inhibition treated for 10 to 15 days; assay type: functional; settings: time 10-15 day
HCC70 = test: Antitumor activity against human HCC70 cells assessed as cell growth inhibition treated for 10 to 15 days; assay type: functional; settings: time 10-15 day
Caov-3 cell line = test: Antitumor activity against human Caov-3 cell line assessed as cell growth inhibition treated for 10 to 15 days; assay type: functional; settings: time 10-15 day
[11] = molecular target: Angiopoietin-1 receptor (Homo sapiens) (UniProt Q02763); test: Inhibition of N-terminal GST-tagged human TIE2 cytoplasmic domain (771 to 1124 residues) expressed in baculovirus-infected Sf21 cells using Blk/Lyntide as substrate at 1 uM in presence of ATP by Mobility shift assay
[12] = molecular target: Histone-lysine N-methyltransferase NSD3 (Homo sapiens, UniProt Q9BZ95); test: Inhibition of human NSD3 using Nucleosomes and [3H]SAM as substrate incubated for 30 mins to 1 hr by HotSpot kinase assay
NCI-H1092 = test: Antitumor activity against human NCI-H1092 cells assessed as cell growth inhibition treated for 10 to 15 days; assay type: functional; settings: time 10-15 day
[13] = molecular target: Histone-lysine N-methyltransferase 2A (Homo sapiens, UniProt Q03164); test: Inhibition of human MLL1 using Nucleosomes and [3H]SAM as substrate incubated for 30 mins to 1 hr by HotSpot kinase assay
Histone-lysine N-methyltransferase 2A, sequence (Q03164 1-2718 limits assumed): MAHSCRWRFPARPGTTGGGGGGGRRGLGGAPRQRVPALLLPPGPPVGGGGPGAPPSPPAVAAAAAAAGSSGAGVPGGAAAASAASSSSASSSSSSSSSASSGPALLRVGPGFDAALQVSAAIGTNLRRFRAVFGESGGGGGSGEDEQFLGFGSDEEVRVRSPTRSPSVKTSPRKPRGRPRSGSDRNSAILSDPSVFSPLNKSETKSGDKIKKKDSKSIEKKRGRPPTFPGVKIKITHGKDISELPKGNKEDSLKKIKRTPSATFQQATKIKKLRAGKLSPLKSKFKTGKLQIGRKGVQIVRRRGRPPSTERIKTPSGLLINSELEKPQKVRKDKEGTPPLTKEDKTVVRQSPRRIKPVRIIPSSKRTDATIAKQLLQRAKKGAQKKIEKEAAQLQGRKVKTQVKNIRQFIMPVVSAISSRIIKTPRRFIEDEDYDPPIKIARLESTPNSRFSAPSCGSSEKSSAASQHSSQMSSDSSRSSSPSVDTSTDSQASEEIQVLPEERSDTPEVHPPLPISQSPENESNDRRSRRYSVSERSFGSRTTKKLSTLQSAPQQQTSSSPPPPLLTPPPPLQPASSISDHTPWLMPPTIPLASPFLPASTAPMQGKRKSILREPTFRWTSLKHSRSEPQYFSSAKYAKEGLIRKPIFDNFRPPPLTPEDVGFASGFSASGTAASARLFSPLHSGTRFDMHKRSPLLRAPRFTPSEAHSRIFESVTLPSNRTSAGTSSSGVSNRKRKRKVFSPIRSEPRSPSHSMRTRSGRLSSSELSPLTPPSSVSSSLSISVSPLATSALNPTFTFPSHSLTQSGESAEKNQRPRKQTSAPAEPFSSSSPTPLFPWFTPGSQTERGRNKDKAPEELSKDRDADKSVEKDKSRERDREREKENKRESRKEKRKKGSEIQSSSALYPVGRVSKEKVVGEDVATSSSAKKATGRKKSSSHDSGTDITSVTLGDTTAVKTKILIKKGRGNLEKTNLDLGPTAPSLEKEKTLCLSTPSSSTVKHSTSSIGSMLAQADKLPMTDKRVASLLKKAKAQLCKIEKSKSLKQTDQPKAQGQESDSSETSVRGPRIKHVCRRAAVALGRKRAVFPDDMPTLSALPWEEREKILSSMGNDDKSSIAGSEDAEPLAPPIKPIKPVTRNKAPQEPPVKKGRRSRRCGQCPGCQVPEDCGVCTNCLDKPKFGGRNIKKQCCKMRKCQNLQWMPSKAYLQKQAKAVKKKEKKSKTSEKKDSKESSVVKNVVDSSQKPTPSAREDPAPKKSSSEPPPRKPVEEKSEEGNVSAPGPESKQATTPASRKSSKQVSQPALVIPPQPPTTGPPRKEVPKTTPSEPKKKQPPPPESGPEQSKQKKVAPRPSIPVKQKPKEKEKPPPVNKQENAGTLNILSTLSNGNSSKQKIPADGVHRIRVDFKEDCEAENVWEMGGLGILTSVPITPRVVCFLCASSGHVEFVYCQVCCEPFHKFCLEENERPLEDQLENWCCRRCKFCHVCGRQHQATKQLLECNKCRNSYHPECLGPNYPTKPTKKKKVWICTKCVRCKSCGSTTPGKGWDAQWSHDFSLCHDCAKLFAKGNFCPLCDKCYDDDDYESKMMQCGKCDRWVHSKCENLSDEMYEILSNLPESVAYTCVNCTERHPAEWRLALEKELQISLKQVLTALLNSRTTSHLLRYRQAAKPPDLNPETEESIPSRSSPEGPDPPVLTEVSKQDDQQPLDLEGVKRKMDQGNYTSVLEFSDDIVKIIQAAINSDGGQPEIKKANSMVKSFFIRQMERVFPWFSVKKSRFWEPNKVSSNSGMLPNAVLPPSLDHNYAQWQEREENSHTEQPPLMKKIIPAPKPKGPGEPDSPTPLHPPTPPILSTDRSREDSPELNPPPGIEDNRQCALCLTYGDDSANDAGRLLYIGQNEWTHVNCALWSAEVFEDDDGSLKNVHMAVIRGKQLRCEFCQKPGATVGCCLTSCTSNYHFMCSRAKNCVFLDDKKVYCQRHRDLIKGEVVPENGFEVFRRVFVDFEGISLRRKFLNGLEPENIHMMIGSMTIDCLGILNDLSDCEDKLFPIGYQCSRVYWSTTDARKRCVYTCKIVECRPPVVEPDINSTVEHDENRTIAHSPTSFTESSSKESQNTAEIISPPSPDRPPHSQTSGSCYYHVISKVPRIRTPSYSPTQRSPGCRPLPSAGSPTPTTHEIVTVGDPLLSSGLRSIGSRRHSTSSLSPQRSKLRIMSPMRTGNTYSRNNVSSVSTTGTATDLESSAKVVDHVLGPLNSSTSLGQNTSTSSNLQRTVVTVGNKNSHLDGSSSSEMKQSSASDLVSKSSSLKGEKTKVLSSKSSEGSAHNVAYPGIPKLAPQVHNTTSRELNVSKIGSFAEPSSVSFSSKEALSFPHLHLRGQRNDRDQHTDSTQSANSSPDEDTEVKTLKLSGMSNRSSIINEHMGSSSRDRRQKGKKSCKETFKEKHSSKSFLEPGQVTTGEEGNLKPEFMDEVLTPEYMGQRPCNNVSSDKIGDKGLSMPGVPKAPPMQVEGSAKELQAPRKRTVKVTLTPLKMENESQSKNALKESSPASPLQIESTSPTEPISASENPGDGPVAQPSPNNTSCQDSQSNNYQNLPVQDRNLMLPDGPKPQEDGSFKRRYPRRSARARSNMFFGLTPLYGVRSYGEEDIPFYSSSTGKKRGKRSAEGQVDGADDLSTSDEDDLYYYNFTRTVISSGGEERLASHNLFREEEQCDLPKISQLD
Histone-lysine N-methyltransferase 2A, sequence (Q03164 2719-3969 limits assumed): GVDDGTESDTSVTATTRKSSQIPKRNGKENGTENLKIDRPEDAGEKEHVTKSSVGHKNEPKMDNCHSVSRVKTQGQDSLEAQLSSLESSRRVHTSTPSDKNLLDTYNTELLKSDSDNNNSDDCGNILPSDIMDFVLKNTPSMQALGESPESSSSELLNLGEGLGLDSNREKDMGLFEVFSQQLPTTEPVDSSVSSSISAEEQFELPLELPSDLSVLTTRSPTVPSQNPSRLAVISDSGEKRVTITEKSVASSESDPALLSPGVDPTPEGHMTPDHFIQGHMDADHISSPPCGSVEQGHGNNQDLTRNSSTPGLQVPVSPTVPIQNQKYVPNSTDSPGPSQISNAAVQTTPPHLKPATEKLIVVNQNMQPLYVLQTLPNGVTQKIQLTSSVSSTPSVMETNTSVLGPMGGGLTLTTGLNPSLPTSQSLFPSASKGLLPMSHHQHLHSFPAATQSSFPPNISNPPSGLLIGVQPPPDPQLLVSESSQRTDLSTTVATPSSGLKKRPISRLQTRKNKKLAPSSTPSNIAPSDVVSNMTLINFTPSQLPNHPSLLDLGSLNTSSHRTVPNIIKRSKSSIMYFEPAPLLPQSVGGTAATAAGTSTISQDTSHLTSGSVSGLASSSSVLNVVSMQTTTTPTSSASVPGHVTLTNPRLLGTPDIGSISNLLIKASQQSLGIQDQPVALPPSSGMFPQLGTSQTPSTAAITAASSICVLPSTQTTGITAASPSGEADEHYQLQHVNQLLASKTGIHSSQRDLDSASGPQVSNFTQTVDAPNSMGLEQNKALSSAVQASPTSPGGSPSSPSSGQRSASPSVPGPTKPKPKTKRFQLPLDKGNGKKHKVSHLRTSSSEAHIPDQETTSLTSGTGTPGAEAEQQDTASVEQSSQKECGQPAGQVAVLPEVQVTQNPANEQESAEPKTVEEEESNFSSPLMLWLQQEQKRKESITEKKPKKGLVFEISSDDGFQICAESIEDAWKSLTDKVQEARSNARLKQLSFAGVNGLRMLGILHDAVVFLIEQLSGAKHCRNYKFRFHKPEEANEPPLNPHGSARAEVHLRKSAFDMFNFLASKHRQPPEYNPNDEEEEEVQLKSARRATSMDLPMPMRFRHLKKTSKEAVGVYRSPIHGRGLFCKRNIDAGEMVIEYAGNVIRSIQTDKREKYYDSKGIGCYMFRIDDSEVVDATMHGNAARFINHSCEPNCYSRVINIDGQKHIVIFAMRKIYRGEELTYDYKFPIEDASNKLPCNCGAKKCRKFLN

MDA-MB-468 = test: Antitumor activity against human MDA-MB-468 cells assessed as cell growth inhibition treated for 10 to 15 days; assay type: functional; settings: time 10-15 day
MC-CAR = test: Antitumor activity against human MC-CAR cells assessed as cell growth inhibition treated for 10 to 15 days; assay type: functional; settings: time 10-15 day
MDA-MB-453 = test: Antitumor activity against human MDA-MB-453 cells assessed as cell growth inhibition treated for 10 to 15 days; assay type: functional; settings: time 10-15 day
OVCAR-3 = test: Antitumor activity against human OVCAR-3 cells assessed as cell growth inhibition treated for 10 to 15 days; assay type: functional; settings: time 10-15 day
A704 = test: Antitumor activity against human A704 cells assessed as cell growth inhibition treated for 10 to 15 days; assay type: functional; settings: time 10-15 day
BT-549 = test: Antitumor activity against human BT-549 cells assessed as cell growth inhibition treated for 10 to 15 days; assay type: functional; settings: time 10-15 day
HCC1806 = test: Antitumor activity against human HCC1806 cells assessed as cell growth inhibition treated for 10 to 15 days; assay type: functional; settings: time 10-15 day
HCC1187 = test: Antitumor activity against human HCC1187 cells assessed as cell growth inhibition treated for 10 to 15 days; assay type: functional; settings: time 10-15 day
NUGC-3 = test: Antitumor activity against human NUGC-3 cells assessed as cell growth inhibition treated for 10 to 15 days; assay type: functional; settings: time 10-15 day
[14] = molecular target: DNA (cytosine-5)-methyltransferase 3B (Homo sapiens, UniProt Q9UBC3); test: Inhibition of human DNMT3b using lambda DNA and [3H]SAM as substrate incubated for 30 mins to 1 hr by HotSpot kinase assay
BT-20 = test: Antitumor activity against human BT-20 cells assessed as cell growth inhibition treated for 10 to 15 days; assay type: functional; settings: time 10-15 day
OV-90 = test: Antitumor activity against human OV-90 cells assessed as cell growth inhibition treated for 10 to 15 days; assay type: functional; settings: time 10-15 day
HCC2935 = test: Antitumor activity against human HCC2935 cells assessed as cell growth inhibition treated for 10 to 15 days; assay type: functional; settings: time 10-15 day
NCI-H522 = test: Antitumor activity against human NCI-H522 cells assessed as cell growth inhibition treated for 10 to 15 days; assay type: functional; settings: time 10-15 day
[15] = molecular target: DNA (cytosine-5)-methyltransferase 1 (Homo sapiens, UniProt P26358); test: Inhibition of human DNMT1 using Poly (dl-dC) and [3H]SAM as substrate incubated for 30 mins to 1 hr by HotSpot kinase assay
Pfeiffer = test: Antitumor activity against human Pfeiffer cells assessed as cell growth inhibition treated for 10 to 15 days; assay type: functional; settings: time 10-15 day
[16] = molecular target: Histone-arginine methyltransferase CARM1 (Homo sapiens, UniProt Q86X55); test: Inhibition of human PRMT4 using Histone H3 and [3H]SAM as substrate incubated for 30 mins to 1 hr by HotSpot kinase assay
Histone-arginine methyltransferase CARM1, sequence (Q86X55 whole entry): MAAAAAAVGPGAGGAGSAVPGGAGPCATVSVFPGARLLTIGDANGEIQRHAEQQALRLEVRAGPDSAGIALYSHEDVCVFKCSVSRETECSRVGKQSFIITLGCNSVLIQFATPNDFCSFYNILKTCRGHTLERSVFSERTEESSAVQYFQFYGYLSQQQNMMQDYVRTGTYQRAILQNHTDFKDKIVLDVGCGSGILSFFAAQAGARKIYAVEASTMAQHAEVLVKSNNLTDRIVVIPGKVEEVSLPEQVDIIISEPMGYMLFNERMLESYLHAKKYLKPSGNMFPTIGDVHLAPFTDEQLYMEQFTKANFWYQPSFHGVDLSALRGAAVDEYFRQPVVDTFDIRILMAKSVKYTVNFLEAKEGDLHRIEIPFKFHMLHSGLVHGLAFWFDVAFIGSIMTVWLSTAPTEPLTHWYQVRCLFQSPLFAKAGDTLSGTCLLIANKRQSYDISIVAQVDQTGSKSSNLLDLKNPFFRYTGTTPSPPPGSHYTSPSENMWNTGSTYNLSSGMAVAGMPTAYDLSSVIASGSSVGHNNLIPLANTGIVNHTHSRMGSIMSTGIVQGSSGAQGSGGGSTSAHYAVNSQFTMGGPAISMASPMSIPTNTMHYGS

HGC-27 = test: Antitumor activity against human HGC-27 cells assessed as cell growth inhibition treated for 10 to 15 days; assay type: functional; settings: time 10-15 day
HCC1599 = test: Antitumor activity against human HCC1599 cells assessed as cell growth inhibition treated for 10 to 15 days; assay type: functional; settings: time 10-15 day
Toledo = test: Antitumor activity against human Toledo cells assessed as cell growth inhibition treated for 10 to 15 days; assay type: functional; settings: time 10-15 day

For `Cc1cc(C)c(CNC(=O)c2cc(Br)c3c(c2C)O[C@@](C)([C@H]2CC[C@H](N(C)C)CC2)O3)c(=O)[nH]1`, the Cmax [1] was 2150 nM, the Activity [2] was 5.97 mg/dL and the Activity [3] was 137 U/L. The Activity [4] was 64 mg/dL, the Activity [5] was 142 mEq/L and the Activity [6] was “Toxic”. The Activity [7] was “Toxic”.

`Cc1cc(C)c(CNC(=O)c2cc(Cl)c3c(c2C)O[C@@](C)([C@H]2CC[C@H](N(C)C)CC2)O3)c(=O)[nH]1` [VALEMETOSTAT] gave an IC50 [8] of 100000 nM, an inhibition [9] of -6.7% and a GI50 [10] of over 1000 nM. The GI50 (Kasumi 1) was 70 nM, the GI50 (CA46) was 296 nM and the GI50 (EB2) was over 1000 nM. For the same compound, the GI50 (UACC-812) was over 1000 nM, the GI50 (LS-513) was over 1000 nM and the GI50 (HCC70) was over 1000 nM. For the same compound, the GI50 (Caov-3 cell line) was over 1000 nM, the inhibition [11] was -7.6% and the IC50 [12] was 100000 nM. The GI50 (NCI-H1092) was over 1000 nM, the IC50 [13] was 100000 nM and the GI50 (MDA-MB-468) was over 1000 nM. It also gave a GI50 (MC-CAR) of 31.3 nM, a GI50 (MDA-MB-453) of 124 nM and a GI50 (OVCAR-3) of over 1000 nM. The GI50 (A704) was over 1000 nM, the GI50 (BT-549) was over 1000 nM and the GI50 (HCC1806) was over 1000 nM. It also gave a GI50 (HCC1187) of over 1000 nM, a GI50 (NUGC-3) of 920 nM and an IC50 [14] of 100000 nM. The GI50 (BT-20) was over 1000 nM, the GI50 (OV-90) was over 1000 nM and the GI50 (HCC2935) was over 1000 nM. It also gave a GI50 (NCI-H522) of 460 nM, an IC50 [15] of 100000 nM and a GI50 (Pfeiffer) of 0.107 nM. For the same compound, the IC50 [16] was 100000 nM, the GI50 (HGC-27) was over 1000 nM and the GI50 (HCC1599) was over 1000 nM. For the same compound, the GI50 (Toledo) was over 1000 nM.
